Here are results for four compounds from patent US20130261131A1, “PHARMACEUTICAL COMPOSITIONS AND MENTODS FOR TREATMENT OF FUNGAL INFECTIONS” (priority 2012, published 2013).

Values after ≈ are worked out from the molar mass of the structure shown. Values joined by “and” are separate entries in the source; they are usually repeats but may differ in a detail not shown here. Equal values may be shown once.

For data set [1], the system named is Ergosterol Biosynthesis, Candida albicans_C286. Description: inhibition of ergosterol biosynthesis. Conditions: Candida albicans_C286, RPMI-1640, 30° C., 48 h. The class given is cell-based, Candida albicans. How it is done: (§1) Compounds of the invention were tested for their ability to inhibit ergosterol biosynthesis. Testing was performed in 96-well round-bottom microtitration plates (Table 2). Cell suspensions were prepared in RPMI-1640 medium and were adjusted to give a final inoculum concentration of 0.5×10^3 to 2.5×10^3 cells/ml. The plates were incubated incubated at 30° C. for 48 h before growth was assessed. The MIC of each compounds was defined as the lowest concentration at which there was 80% inhibition of growth compared with that in a drug-free control [O. N. Breivik and J. L. Owades, Agric. Food Chem., 5 (1957) 360-363; T. F. Patterson, S. G. Revankar, W. R. Kirkpatrick, O. Dib, A. W. Fothergill, S. W. Redding, D. A. Sutton and M. G. Rinaldi, J. Clin. Microbiol., 34 (1996) 1794-1797]. Ergosterol content was calculated as a percentage of the wet weight of the cell [National Committee for Clinical Laboratory Standards. 1997. Reference method for broth dilution antifungal susceptibility testing of yeasts, Approved standard. Document M27-A, National Committee for Clinical Laboratory Standards, Wayne, Pa.].

For a further data set, the system named is Cryptococcus neoformans. Description: agar dilution in vitro activity test. Format: cell-based. Conditions: 10 organisms, Kimmig's agar, 25° C.; for MIC: read-out: GMMICS (geometric mean minimum inhibitory concentration). Here is the method:
(§2) Organisms listed in Table 1 were tested according to an agar dilution method: Suspensions of each microorganism were prepared to contain […] colony forming units (cfu)/mL. All drugs were dissolved in a few drops of DMSO then diluted with ethanol—water (1/1, v/v) to make a stock solution of 500 μg/mL. The agar dilution method was performed in a medium of Kimmig's agar (K. A., Merck) −0.5% glycerol [R. A. Fromtling, G. K. Abruzzo and A. Ruiz, Mycopathologia, 106 (1989) 163-166]. Plates of Kimmig's agar containing serial dilutions (25 to 0.01 μg/mL) of the drugs were inoculated with 10 μL of the fungal inocula and incubated at 25° C. […] for yeasts and up to 5 days for filamentous fungi. Following incubation, GMMICs (geometric mean minimum inhibitory concentration μg/mL) were determined. In the table POCZ indicates posaconazole, ITRZ indicates itraconazole, EQUZ indicates Equaconazole, and FLUZ indicates fluconazole [Patterson, T. F., S. G. Revankar, W. R. Kirkpatrick, O. Dib, A. W. Fothergill, S. W. Redding, D. A. Sutton, and M. G. Rinaldi, J. Clin. Microbiol. 34 (1996) 1794-1797].

The next data set relates to Trichophyton rubrum. Description: agar dilution in vitro activity test. Format: cell-based. Conditions: 17 organisms, Kimmig's agar, 25° C.; for MIC: read-out: GMMICS (geometric mean minimum inhibitory concentration). Here is the method:
as §2
(In general: In agar dilution, organisms are placed on agar that contains the substance at set levels.)

The subject of another data set is Candida Krusei. In words: agar dilution in vitro activity test. Format: cell-based. Conditions: 22 organisms, Kimmig's agar, 25° C.; for MIC: Pichia kudriavzevii, read-out: GMMICS (geometric mean minimum inhibitory concentration). How it is done:
as §2

A further data set relates to Aspergillus Flavus. Description: agar dilution in vitro activity test. To be noted: 9 organisms, Kimmig's agar, 25° C.; for MIC: read-out: GMMICS (geometric mean minimum inhibitory concentration). The class given is cell-based. Here is the method: as §2
Another data set relates to Microsporum canis. Description: agar dilution in vitro activity test. To be noted: 6 organisms, Kimmig's agar, 25° C.; for MIC: read-out: GMMICS (geometric mean minimum inhibitory concentration). Format: cell-based. How it is done:
as §2

For data set [2], the system named is Ergosterol Biosynthesis, Aspergillus fumigatus_ND 158. In words: inhibition of ergosterol biosynthesis. The class given is cell-based, Aspergillus fumigatus. To be noted: Aspergillus fumigatus_ND 158, RPMI-1640, 30° C., 48 h. Here is the method:
as §1

The nature of data set [3]: PK study of antifungal nasal spray, plasma level after intranasal dosing. The class given is in vivo, Gottingen mini-pigs. How it is done: Experiments were performed to determine blood levels of Posaconazole formulation after intranasal dosing in Gottingen mini-pigs. A Group of three male and three female mini-pigs (ages from 6 to 9 months) were used for the studies. The vehicle used in the experiments was 5% of PEG-12 GDM in saline solution. The intranasal administration was performed with 35 mL of Luer slip syringes. HPLC-MS analyses were performed on heparinized mini-pig plasma samples obtained typically at 0 hr, 0.08 hr, 1 hr, 2 hr, 4 hr, 12 hr and 24 hr after dosing. The drug was first isolated from plasma with a sample pre-treatment. Acetonitrile were used to remove proteins in samples. An isocratic HPLC-MS method was then used to separate the drug from any potential interference. Drug levels were measured by MS detection with a multiple reaction monitoring (MRM) mode.

The term IC50 denotes the concentration that inhibits the measured activity by half. Read a low IC50 as greater potency. `CCC(C)n1ncn(-c2ccc(N3CCN(c4ccc(OCC5COC(Cn6cncn6)(c6ccc(Cl)cc6Cl)O5)cc4)CC3)cc2)c1=O` (stereo not drawn) [ITRZ, itraconazole] showed an IC50 in data set [1] of 39.1 nM. Also, the MIC in the data set with Cryptococcus neoformans came out at 0.49 µg/mL (≈ 0.694 µM); in the data set on Trichophyton rubrum, 3.1 µg/mL (≈ 4.39 µM); in the data set with Candida Krusei it was 0.6 µg/mL (≈ 0.85 µM); in the data set on Aspergillus Flavus, 0.35 µg/mL (≈ 0.496 µM); with Microsporum canis it was 1.2 µg/mL (≈ 1.7 µM).

As to Equaconazole [EQUZ], the concentration for half-maximal inhibition (IC50) turned out to be 9.8 nM in data set [2] and 31.1 nM in data set [1]. The “GMMICS (geometric mean minimum inhibitory concentration)” value came out at 0.25 µg/mL in the data set on Cryptococcus neoformans; 0.10 µg/mL in the data set with Trichophyton rubrum; 0.15 µg/mL with Candida Krusei; 0.09 µg/mL with Aspergillus Flavus; 0.35 µg/mL in the data set on Microsporum canis.

For `OC(Cn1cncn1)(Cn1cncn1)c1ccc(F)cc1F` [FLUZ, fluconazole], the MIC in the data set on Cryptococcus neoformans was 45 µg/mL (≈ 147 µM); with Trichophyton rubrum, 105 µg/mL (≈ 343 µM); in the data set on Candida Krusei it was 65 µg/mL (≈ 212 µM); in the data set on Aspergillus Flavus, greater than 235 µg/mL; in the data set on Microsporum canis, 151 µg/mL (≈ 493 µM).

Take `CC[C@@H]([C@H](C)O)n1ncn(-c2ccc(N3CCN(c4ccc(OC[C@@H]5CO[C@@](Cn6cncn6)(c6ccc(F)cc6F)C5)cc4)CC3)cc2)c1=O` [POCZ, posaconazole]: the MIC amounted to 0.24 µg/mL (≈ 0.342 µM) in the data set on Cryptococcus neoformans; 1.2 µg/mL (≈ 1.71 µM) in the data set with Trichophyton rubrum; 0.21 µg/mL (≈ 0.3 µM) in the data set on Candida Krusei; 0.12 µg/mL (≈ 0.171 µM) in the data set with Aspergillus Flavus; 0.5 µg/mL (≈ 0.713 µM) in the data set with Microsporum canis. Also, the “Posaconazole Level in Mini-pig Plasma” value is 1.23 ng/mL and 1.39 ng/mL and 1.21 ng/mL in data set [3] (0.08 hour after intranasal dosing, 5% PEG-12 GDM in saline, individual animals, female mini-pigs); 1.74 ng/mL and 1.56 ng/mL in data set [3] (0.08 hour after intranasal dosing, 5% PEG-12 GDM in saline, individual animals, male mini-pigs); 2.06 ng/mL and 1.86 ng/mL and 1.26 ng/mL in data set [3] (1 hour after intranasal dosing, 5% PEG-12 GDM in saline, individual animals, female mini-pigs); 1.24 ng/mL and 1.26 ng/mL in data set [3] (1 hour after intranasal dosing, 5% PEG-12 GDM in saline, individual animals, male mini-pigs); 1.28 ng/mL and 1.17 ng/mL and 1.56 ng/mL in data set [3] (4 hour after intranasal dosing, 5% PEG-12 GDM in saline, individual animals, female mini-pigs); 1.42 ng/mL and 1.46 ng/mL in data set [3] (4 hour after intranasal dosing, 5% PEG-12 GDM in saline, individual animals, male mini-pigs). The “Posaconazole Level in Mini-pig Plasma” value is 2.03 ng/mL and 2.44 ng/mL and 2.35 ng/mL in data set [3] (12 hour after intranasal dosing, 5% PEG-12 GDM in saline, individual animals, female mini-pigs); 2.41 ng/mL and 1.93 ng/mL in data set [3] (12 hour after intranasal dosing, 5% PEG-12 GDM in saline, individual animals, male mini-pigs); 1.17 ng/mL and 2.04 ng/mL and 1.46 ng/mL in data set [3] (24 hour after intranasal dosing, 5% PEG-12 GDM in saline, individual animals, female mini-pigs); 1.86 ng/mL and 1.66 ng/mL in data set [3] (24 hour after intranasal dosing, 5% PEG-12 GDM in saline, individual animals, male mini-pigs). Moreover, the concentration at 0.08 h in data set [3] (both sexes, Gottingen, minipig, plasma, other: intranasal, 0.08 hour after intranasal dosing, 5% PEG-12 GDM in saline, individual animals, read-out: Posaconazole Level in Mini-pig Plasma) was found to be 1.35 ng/mL. Besides, the concentration at 1 h in data set [3] (both sexes, Gottingen, minipig, plasma, other: intranasal, 1 hour after intranasal dosing, 5% PEG-12 GDM in saline, individual animals, read-out: Posaconazole Level in Mini-pig Plasma) worked out at 1.62 ng/mL. Moreover, the concentration at 4 h in data set [3] (both sexes, Gottingen, minipig, plasma, other: intranasal, 4 hour after intranasal dosing, 5% PEG-12 GDM in saline, individual animals, read-out: Posaconazole Level in Mini-pig Plasma) amounted to 1.26 ng/mL. The concentration at 12 h in data set [3] (both sexes, Gottingen, minipig, plasma, other: intranasal, 12 hour after intranasal dosing, 5% PEG-12 GDM in saline, individual animals, read-out: Posaconazole Level in Mini-pig Plasma) was 1.96 ng/mL. For the same compound, the concentration at 24 h in data set [3] (both sexes, Gottingen, minipig, plasma, other: intranasal, 24 hour after intranasal dosing, 5% PEG-12 GDM in saline, individual animals, read-out: Posaconazole Level in Mini-pig Plasma) was determined as 1.86 ng/mL. Besides, in data set [3] (intranasal dosing with formulated Posaconazole), the “amount detected in mini-pig plasma after dosing (in words)” value is “Only trace amounts”.
